Results as given in PMC7305224, “Mutually stabilizing interactions between proto-peptides and RNA” (Nature Communications, 2020).

Experiments:
[1] = test system: RNA duplex 1 (5′-rCrGrCrUrArArArUrCrG-3′ & 5′-rCrGrArUrUrUrArGrCrG-3′); test: RNA thermal denaturation (Tm) by UV hyperchromicity at 260 nm with synthetic peptides/depsipeptides, RNA duplex 1; assay type: binding; settings: 100 mM NaCl
Method: Each sample contained RNA duplex 1 (5′-rCrGrCrUrArArArUrCrG-3′ and 5′-rCrGrArUrUrUrArGrCrG-3′, 2.5 μM strand) and peptide/depsipeptide (100 μM) in buffered solution (10 mM phosphate, 100 mM NaCl, pH 7.0 or 10 mM acetate, 100 mM NaCl, pH 5.0). a Structures of depsipeptides used to systematically characterize cationic side chain effects on RNA duplex stability. Lactic acid residues are highlighted. Ac acetyl, Aba acetamidobenzoic acid, which was appended to the N-terminus to increase UV absorbance. b Structures of the Fmoc-didepsipeptide building blocks used for solid-phase synthesis of depsipeptide sequences. Fmoc fluorenylmethoxycarbonyl. c Comparative effects of oligo-didepsipeptide sequences 2–6 and analogous oligo-dipeptide and on the Tm of the RNA duplex (number of independent measurements: n = 3 for Arg and Lys sequences; n = 2 for His and Dab sequences; n = 4 for Orn sequences). The shaded areas correspond to the mean ± SD Tm measured for the RNA duplex alone (n = 16 independent measurements). Data are shown as a scatter plot with mean ± SD. d Comparative effects on RNA duplex Tm of depsipeptide sequences containing a single backbone ester (number of independent measurements: n = 3 for Arg; n = 2 for His, Orn, and Dab; n = 4 for Lys), relative to RNA duplex alone (n = 16 independent measurements). Data are shown as a scatter plot with mean ± SD. e To assess the impact of different cationic side chains on depsipeptide degradation rates, depsipeptides 7–11 (40 μM) were incubated at 37 °C in buffer (100 mM HEPES, 10 mM NaCl, pH 7.3). After 5 min, the reactions were quenched by the addition of 3% TFA, and samples were analyzed by HPLC.
(§1) Prior to Tm analyses, RNA samples were annealed in the appropriate buffer by heating to 75 °C and slowly cooling to room temperature. Depsipeptide/peptide was added to the annealed RNA and incubated at 4 °C for 20 min prior to carrying out the analysis. For analyses involving dry-down reaction mixtures, the Tm was determined by monitoring fluorescence increase upon melting of a fluorophore/quencher-labeled RNA duplex (5′-rCrGrArUrUrUrArGrCrG-/3IABkFQ/-3′ and 3′-rGrCrUrArArArUrCrGrC-FAM-5′) using a BioRad CFX Connect rtPCR instrument with a heating ramp of 1 °C/min and 20 μL final sample volumes. For analyses involving pure, synthetic compounds, the Tm of the RNA was determined by monitoring UV hyperchromicity at 260 nm using a Varian Cary Bio-100 spectrophotometer, with a heating ramp of 1 °C/min and 0.5- or 1-cm pathlength cells. The following RNA sequences were used: RNA duplex 1 = 5′-rCrGrCrUrArArArUrCrG-3′ and 5′-rCrGrArUrUrUrArGrCrG-3′; RNA duplex 2 = 5′-rArArArArUrUrUrArUrArUrUrArUrUrA-3′ and 5′-rUrArArUrArArUrArUrArArArUrUrUrU-3′; RNA duplex 3 = 5′-rArArCrGrUrArUrArCrGrUrU-3′ (palindromic); and H26a RNA = 5′-rArUrGrArGrUrArArCrCrGrUrArArGrGrUrGrArArArUrU-3′. RNA was present in each assay at a final concentration of 2.5 μM of the folded structure (2.5 μM each strand for duplex 1 and duplex 2, 5.0 μM palindromic strand for duplex 3, 2.5 μM strand for H26a RNA). Tm values were determined by nonlinear fitting of the melting curves using GraphPad Prism 8.2.1 for duplex 1 and H26a, or by finding the maximum of the first derivative of the curve using the Varian Cary Bio-100 software for duplex 2 and duplex 3.

[2] = test system: RNA duplex 2 (5′-rArArArArUrUrUrArUrArUrUrArUrUrA-3′ and 5′-rUrArArUrArArUrArUrArArArUrUrUrU-3′); test: RNA thermal denaturation (Tm) by UV hyperchromicity, RNA duplex 2; assay type: binding
Method: as §1, with “3. Both methods of determining the Tm gave similar values for a given denaturation curve.” for “3.”

Aba-Gly-Ala-Dab-Lys-Ala-Dab-Lys-lac-Dab-Lys-Ala-Dab-Lys-NH2 [compound 9]
RNA duplex 1 Tm ([1]; observed Tm with peptide/depsipeptide 100 µM, pH 7.0, 10 mM phosphate, RNA alone 43.8 ± 0.4, mean ± SD of 2-4 independent experiments): 54.2 ± 1.3 °C
RNA duplex 1 ΔTm ([1]; peptide/depsipeptide 100 μM, RNA 2.5 μM each strand, 10 mM phosphate, pH 7.0, vs RNA alone at matched pH, mean of 2–4 replicates): 10.4 °C
RNA duplex 2 Tm ([2]; observed Tm with peptide/depsipeptide 100 µM, pH 7.0, RNA alone 33.7 ± 0.7, mean ± SD of 2-4 independent experiments): 41.8 ± 0.6 °C
RNA duplex 2 ΔTm ([2]; peptide/depsipeptide 100 μM, RNA 2.5 μM each strand, pH 7.0, 10 mM phosphate, 100 mM NaCl, mean of 2–4 replicates): 8.2 °C
